Laboratory results: patent US12257216B2, “Treatment for hot flushes” (Dignity Health, priority 2017, dated 2025)
Entries after “also recorded” stand apart in the source; their conditions may differ.

What was measured:
ovariectomized rats [1] = test: ambient warming-induced cold-seeking test in a thermogradient apparatus; format: in vivo, rat; details: vs OVX Vehicle+Vehicle
Description: Experiments were performed in adult female Wistar rats (Envigo) weighting 240-280 g at the day of the first surgery (Day 0). Rats were housed three per cage in standard “show boxes”. The room was maintained on a 12:12 h light-dark cycle (lights-on at 6 AM) at 24±2° C. All protocols were approved by the Institutional Animal Care and Use Committee.
On Day 0, each rat was subjected to a bilateral ovariectomy or sham surgery, either with or without simultaneous implantation of a miniature data logger into the peritoneal cavity for body temperature measurement. On Day 7, the ovariectomized rats were implanted subcutaneously with a capsule containing either estradiol or vehicle, and the sham-operated rats were implanted with a capsule containing vehicle. On Days 6-15, the rats were habituated to experimental setups and procedures. The rats were taken into experiments between Days 16 and 20 (Experiments 1-3) or on Days 13 and 20 (Experiment 4); each rat was used in two experiments. Thermal discomfort was studied in one of two tests: the ambient warming-induced cold-seeking test in a thermogradient apparatus (cold-seeking test; Experiments 1-3) or the internal warming-induced cessation of warm sucrose intake test (sucrose intake cessation test; Experiment 4). Some ovariectomized rats were treated with a TRPV1. antagonist (capsazepine, Al 165442, or SB366791) or vehicle prior to a test. After experiments (Day 21), each rat used in Experiments 1-3 was euthanized, and the uterus was removed and weighed to confirm the completeness of the ovariectomy and the effectiveness of the estradiol replacement procedure.
The goal of Experiment 1 was to determine whether ovariectomy facilitates the cold-seeking behavior after heat exposure, and whether this facilitation (if it occurs) is estradiol-dependent. […]
Cold-seeking test. […] The preferred ambient temperature was recorded for 10 min. […]

TRPV1 = TRPV1 (Homo sapiens, UniProt Q8NER1); details: cited from earlier work
[2] = as supported by animal studies; cited from earlier work
ovariectomized rats [3] = test: uterus mass after ovariectomy and estradiol replacement; format: in vivo, rat; details: Experiment 1; ovariectomized rats with estradiol replacement; mean±SE; Day 21
Excerpt: On Day 0, each rat was subjected to a bilateral ovariectomy or sham surgery, either with or without simultaneous implantation of a miniature data logger into the peritoneal cavity for body temperature measurement. On Day 7, the ovariectomized rats were implanted subcutaneously with a capsule containing either estradiol or vehicle, and the sham-operated rats were implanted with a capsule containing vehicle. On Days 6-15, the rats were habituated to experimental setups and procedures. The rats were taken into experiments between Days 16 and 20 (Experiments 1-3) or on Days 13 and 20 (Experiment 4); each rat was used in two experiments. Thermal discomfort was studied in one of two tests: the ambient warming-induced cold-seeking test in a thermogradient apparatus (cold-seeking test; Experiments 1-3) or the internal warming-induced cessation of warm sucrose intake test (sucrose intake cessation test; Experiment 4). Some ovariectomized rats were treated with a TRPV1. antagonist (capsazepine, Al 165442, or SB366791) or vehicle prior to a test. […] All data arc expressed as mean±SE. The preferred ambient temperature and sucrose intake data analyzed by a two-way repeated-measurements ANOVA, followed by the Fisher or Newman-Keuls multiple comparisons test, as appropriate. The uterus mass data were analyzed by a one-way ANOVA followed by the Fisher test. […]

ovariectomized rats [4] = test: internal warming-induced cessation of warm sucrose intake test (sucrose intake cessation test); format: in vivo, rat; details: Experiment 4, SB366791 10 mg/kg by oral gavage 20 min prior to heat exposure (32.5° C., 10 min), vs OVX Vehicle+Vehicle
Description: Experiments were performed in adult female Wistar rats (Envigo) weighting 240-280 g at the day of the first surgery (Day 0). Rats were housed three per cage in standard “show boxes”. The room was maintained on a 12:12 h light-dark cycle (lights-on at 6 AM) at 24±2° C. All protocols were approved by the Institutional Animal Care and Use Committee. On Day 0, each rat was subjected to a bilateral ovariectomy or sham surgery, either with or without simultaneous implantation of a miniature data logger into the peritoneal cavity for body temperature measurement. On Day 7, the ovariectomized rats were implanted subcutaneously with a capsule containing either estradiol or vehicle, and the sham-operated rats were implanted with a capsule containing vehicle. On Days 6-15, the rats were habituated to experimental setups and procedures. […] Each burette was fitted with a stainless steel spout and filled with a 0.3 M sucrose solution at either 27 or 40° C., and sucrose solution consumption was recorded for 15 min. […] All data arc expressed as mean±SE. The preferred ambient temperature and sucrose intake data analyzed by a two-way repeated-measurements ANOVA, followed by the Fisher or Newman-Keuls multiple comparisons test, as appropriate. The uterus mass data were analyzed by a one-way ANOVA followed by the Fisher test. […]

Chain of TRPV1 (Q8NER1 whole entry, species assumed): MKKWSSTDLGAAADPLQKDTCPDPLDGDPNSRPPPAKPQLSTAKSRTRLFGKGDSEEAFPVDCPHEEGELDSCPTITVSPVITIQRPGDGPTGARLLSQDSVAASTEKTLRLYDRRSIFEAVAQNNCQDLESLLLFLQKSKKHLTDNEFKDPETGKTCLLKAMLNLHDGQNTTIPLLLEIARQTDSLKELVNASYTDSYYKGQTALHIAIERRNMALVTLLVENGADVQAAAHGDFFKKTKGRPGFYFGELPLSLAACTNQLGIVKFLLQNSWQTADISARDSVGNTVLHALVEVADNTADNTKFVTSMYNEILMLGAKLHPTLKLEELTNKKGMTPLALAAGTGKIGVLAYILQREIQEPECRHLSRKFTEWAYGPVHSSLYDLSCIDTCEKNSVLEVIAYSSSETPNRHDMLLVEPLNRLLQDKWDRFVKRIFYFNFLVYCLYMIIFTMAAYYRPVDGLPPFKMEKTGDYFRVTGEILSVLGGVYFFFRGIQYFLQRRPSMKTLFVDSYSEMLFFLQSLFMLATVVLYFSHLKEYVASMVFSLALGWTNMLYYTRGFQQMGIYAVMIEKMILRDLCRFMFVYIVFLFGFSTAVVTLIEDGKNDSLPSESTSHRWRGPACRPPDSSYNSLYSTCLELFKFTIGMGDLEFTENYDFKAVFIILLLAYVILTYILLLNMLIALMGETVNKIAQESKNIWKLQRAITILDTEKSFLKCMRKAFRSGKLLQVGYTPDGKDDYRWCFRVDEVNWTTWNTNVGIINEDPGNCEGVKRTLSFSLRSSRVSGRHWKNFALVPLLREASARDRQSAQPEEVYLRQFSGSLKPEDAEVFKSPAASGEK

## Cc1cc2c(NC(=O)N[C@@H]3CC(CF)(CF)Oc4cc(Cl)ccc43)cccc2cn1 [A1165442]
Ovariectomized rats [1]; Experiment 3, A1165442 100 mg/kg by oral gavage prior to 10-min mild heat exposure (31° C.), 100 mg/kg
  heat exposure-induced cold-seeking behavior (preferred ambient temperature): strongly attenuated; also recorded: treat this thermal discomfort; also recorded: significant difference

## FC(F)(F)c1ccc(-c2cc(Nc3ccc4ncsc4c3)ncn2)c(NCC2CCCCC2)c1 [AMG7905]
TRPV1
  effect on activation of TRPV1 by protons: potentiate the activation of TRPV1 by protons
[2]
  effect on body temperature: cause hypothermia

## C[C@]12CC[C@@H]3c4ccc(O)cc4CC[C@H]3[C@@H]1CC[C@@H]2O [Estradiol, estradiol]
Ovariectomized rats [3]
  uterus mass: 0.42 ± 0.02 g

## COc1cccc(NC(=O)/C=C/c2ccc(Cl)cc2)c1 [SB366791]
Ovariectomized rats [4]
  cumulative intake of warm (40° C.) sucrose solution (avoidance of internal warming): attenuated; also recorded: treat this thermal discomfort; also recorded: significant difference

## Oc1cc2c(cc1O)CN(C(=S)NCCc1ccc(Cl)cc1)CCC2 [capsazepine]
Ovariectomized rats [1]; Experiment 2, capsazepine 40 mg/kg by oral gavage 30 min prior to 10-min mild heat exposure (31° C.)
  heat exposure-induced cold-seeking behavior (preferred ambient temperature): strongly attenuated; also recorded: treat this thermal discomfort
Ovariectomized rats [1]; Experiment 2, capsazepine 40 mg/kg by oral gavage 30 min prior to 10-min mild heat exposure (31° C.), listed as Capsazepine
  heat exposure-induced cold-seeking behavior (preferred ambient temperature): significant difference
